# Results as given in the supplement of paper PMC8671470.
# How the values were obtained:
# Assay in all cases: cell viability (% survival relative to DMSO control); higher = less cytotoxic
# Conditions in all cases: 72 h
# [1] = test system: myeloid leukemia patient primary cells Pat.2
# Method in brief: (§1)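 Where an area under the curve appears, it was computed with the drc and PharmacoGx R packages from log-logistic fits. Those fits used four parameters. The underlying viability data came from CellTiter-Glo after 72 h, normalised to DMSO and 10 μM proteasome-inhibitor wells, with thawed, Ficoll-purified AML or CML patient mononuclear cells at 10,000 cells/well in RPMI 1640 with 10% FBS on 384-well plates pre-printed with 70 compounds at five tenfold concentrations (1–10,000 nM) in duplicate.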
# [2] = test system: myeloid leukemia patient primary cells Pat.11
# Method in brief: as §1
# [3] = test system: myeloid leukemia patient primary cells Pat.9
# Method in brief: as §1
# [4] = test system: myeloid leukemia patient primary cells Pat.1
# Method in brief: as §1
smiles,measurement,setting,value
CCOC(=O)N1c2ccc(C(F)(F)F)cc2[C@@H](N(Cc2cc(C(F)(F)F)cc(C(F)(F)F)c2)C(=O)OC)C[C@H]1CC [Torcetrapib],cell viability,[1]; 1 nM,97.2%
same,cell viability,[1]; 10 nM,84.4%
same,cell viability,[1]; 100 nM,99.7%
same,cell viability,[1]; 1000 nM,99.7%
same,cell viability,[1]; 10000 nM,80.2%
same,cell viability,[2]; 1 nM,96.7%
same,cell viability,[2]; 10 nM,85.1%
same,cell viability,[2]; 100 nM,99.1%
same,cell viability,[2]; 1000 nM,> 100%
same,cell viability,[2]; 10000 nM,97.5%
same,cell viability,[3]; 1 nM,45.1%
same,cell viability,[3]; 10 nM,28.6%
same,cell viability,[3]; 100 nM,68.9%
same,cell viability,[3]; 1000 nM,48.8%
same,cell viability,[3]; 10000 nM,5.45%
same,cell viability,[4]; 1 nM,93.1%
same,cell viability,[4]; 10 nM,72.9%
same,cell viability,[4]; 100 nM,92.6%
same,cell viability,[4]; 1000 nM,95.4%
same,cell viability,[4]; 10000 nM,65.3%
Nc1ccn([C@@H]2O[C@H](CO)[C@@H](O)[C@@H]2O)c(=O)n1 [Cytarabine],cell viability,[1]; 1 nM,99%
same,cell viability,[1]; 10 nM,88.1%
same,cell viability,[1]; 100 nM,95.9%
same,cell viability,[1]; 1000 nM,89.1%
same,cell viability,[1]; 10000 nM,37.3%
same,cell viability,[2]; 1 nM,95.7%
same,cell viability,[2]; 10 nM,93.6%
same,cell viability,[2]; 100 nM,> 100%
same,cell viability,[2]; 1000 nM,89.3%
same,cell viability,[2]; 10000 nM,41.1%
same,cell viability,[3]; 1 nM,89.7%
same,cell viability,[3]; 10 nM,18.1%
same,cell viability,[3]; 100 nM,51.2%
same,cell viability,[3]; 1000 nM,15.5%
same,cell viability,[3]; 10000 nM,2.09%
same,cell viability,[4]; 1 nM,99.3%
same,cell viability,[4]; 10 nM,96.1%
same,cell viability,[4]; 100 nM,76.9%
same,cell viability,[4]; 1000 nM,84.9%
same,cell viability,[4]; 10000 nM,60.7%
Cc1noc2c1-c1ccccc1C(c1ccc(Cl)cc1)=N[C@H]2CC(N)=O [CPI-0610],cell viability,[1]; 1 nM,99.4%
same,cell viability,[1]; 10 nM,97.6%
same,cell viability,[1]; 100 nM,88.9%
same,cell viability,[1]; 1000 nM,58.5%
same,cell viability,[1]; 10000 nM,40.3%
same,cell viability,[2]; 1 nM,> 100%
same,cell viability,[2]; 10 nM,93%
same,cell viability,[2]; 100 nM,93.6%
same,cell viability,[2]; 1000 nM,54.3%
same,cell viability,[2]; 10000 nM,51.8%
same,cell viability,[3]; 1 nM,83%
same,cell viability,[3]; 10 nM,24.2%
same,cell viability,[3]; 100 nM,88.3%
same,cell viability,[3]; 1000 nM,6.03%
same,cell viability,[3]; 10000 nM,11.5%
same,cell viability,[4]; 1 nM,90.3%
same,cell viability,[4]; 10 nM,93.9%
same,cell viability,[4]; 100 nM,84.9%
same,cell viability,[4]; 1000 nM,39.1%
same,cell viability,[4]; 10000 nM,21.7%
Clc1ccc(COC(Cn2ccnc2)c2ccc(Cl)cc2Cl)cc1 (stereo not given) [Econazole],cell viability,[1]; 1 nM,94.9%
same,cell viability,[1]; 10 nM,91.2%
same,cell viability,[1]; 100 nM,96.5%
same,cell viability,[1]; 1000 nM,97.6%
same,cell viability,[1]; 10000 nM,90%
same,cell viability,[2]; 1 nM,89.9%
same,cell viability,[2]; 10 nM,92.9%
same,cell viability,[2]; 100 nM,99.9%
same,cell viability,[2]; 1000 nM,88.6%
same,cell viability,[2]; 10000 nM,73.3%
same,cell viability,[3]; 1 nM,55.9%
same,cell viability,[3]; 10 nM,80.5%
same,cell viability,[3]; 100 nM,43.2%
same,cell viability,[3]; 1000 nM,25.8%
same,cell viability,[3]; 10000 nM,3.7%
same,cell viability,[4]; 1 nM,83.3%
same,cell viability,[4]; 10 nM,77.2%
same,cell viability,[4]; 100 nM,93.6%
same,cell viability,[4]; 1000 nM,> 100%
same,cell viability,[4]; 10000 nM,52.8%
COc1c(C)c2c(c(O)c1C/C=C(\C)CCC(=O)O)C(=O)OC2 [Mycophenolic acid],cell viability,[1]; 1 nM,97.4%
same,cell viability,[1]; 10 nM,99.8%
same,cell viability,[1]; 100 nM,82.1%
same,cell viability,[1]; 1000 nM,> 100%
same,cell viability,[1]; 10000 nM,85.6%
same,cell viability,[2]; 1 nM,88.3%
same,cell viability,[2]; 10 nM,> 100%
same,cell viability,[2]; 100 nM,91%
same,cell viability,[2]; 1000 nM,> 100%
same,cell viability,[2]; 10000 nM,78.1%
same,cell viability,[3]; 1 nM,28%
same,cell viability,[3]; 10 nM,63.2%
same,cell viability,[3]; 100 nM,52%
same,cell viability,[3]; 1000 nM,50.4%
same,cell viability,[3]; 10000 nM,75%
same,cell viability,[4]; 1 nM,78.4%
same,cell viability,[4]; 10 nM,96.8%
same,cell viability,[4]; 100 nM,85%
same,cell viability,[4]; 1000 nM,93.9%
same,cell viability,[4]; 10000 nM,87.3%
CC(Cc1ccc(O)c(O)c1)C(C)Cc1ccc(O)c(O)c1 (stereo not given) [Masoprocol],cell viability,[1]; 1 nM,98.7%
same,cell viability,[1]; 10 nM,89.8%
same,cell viability,[1]; 100 nM,90.3%
same,cell viability,[1]; 1000 nM,87.7%
same,cell viability,[1]; 10000 nM,68%
same,cell viability,[2]; 1 nM,94.1%
same,cell viability,[2]; 10 nM,> 100%
same,cell viability,[2]; 100 nM,98.8%
same,cell viability,[2]; 1000 nM,89.9%
same,cell viability,[2]; 10000 nM,80%
same,cell viability,[3]; 1 nM,75.1%
same,cell viability,[3]; 10 nM,87.1%
same,cell viability,[3]; 100 nM,97.4%
same,cell viability,[3]; 1000 nM,9.61%
same,cell viability,[3]; 10000 nM,83.4%
same,cell viability,[4]; 1 nM,> 100%
same,cell viability,[4]; 10 nM,92.3%
same,cell viability,[4]; 100 nM,90.5%
same,cell viability,[4]; 1000 nM,85.6%
same,cell viability,[4]; 10000 nM,51.7%
CCN(CC)CCN(Cc1ccc(-c2ccc(C(F)(F)F)cc2)cc1)C(=O)Cn1c(SCc2ccc(F)cc2)nc(=O)c2c1CCC2 [Darapladib],cell viability,[1]; 1 nM,84.7%
same,cell viability,[1]; 10 nM,95.9%
same,cell viability,[1]; 100 nM,83%
same,cell viability,[1]; 1000 nM,83.1%
same,cell viability,[1]; 10000 nM,< 0%
same,cell viability,[2]; 1 nM,87.2%
same,cell viability,[2]; 10 nM,98.3%
same,cell viability,[2]; 100 nM,85.3%
same,cell viability,[2]; 1000 nM,88.2%
same,cell viability,[2]; 10000 nM,0.357%
same,cell viability,[3]; 1 nM,37.7%
same,cell viability,[3]; 10 nM,60.6%
same,cell viability,[3]; 100 nM,25.1%
same,cell viability,[3]; 1000 nM,2.92%
same,cell viability,[3]; 10000 nM,< 0%
same,cell viability,[4]; 1 nM,79.5%
same,cell viability,[4]; 10 nM,83%
same,cell viability,[4]; 100 nM,61.6%
same,cell viability,[4]; 1000 nM,95.4%
same,cell viability,[4]; 10000 nM,< 0%
CC12CCC(O)CC1CCC1C2CCC2(C)C(C3=CC(=O)OC3)CCC12O (stereo not given) [Digitoxigenin],cell viability,[1]; 1 nM,94.1%
same,cell viability,[1]; 10 nM,95.3%
same,cell viability,[1]; 100 nM,88.5%
same,cell viability,[1]; 1000 nM,42.4%
same,cell viability,[1]; 10000 nM,6.42%
same,cell viability,[2]; 1 nM,99.8%
same,cell viability,[2]; 10 nM,94.1%
same,cell viability,[2]; 100 nM,94.8%
same,cell viability,[2]; 1000 nM,31.9%
same,cell viability,[2]; 10000 nM,9.33%
same,cell viability,[3]; 1 nM,79%
same,cell viability,[3]; 10 nM,54.7%
same,cell viability,[3]; 100 nM,13%
same,cell viability,[3]; 1000 nM,5.35%
same,cell viability,[3]; 10000 nM,4.43%
same,cell viability,[4]; 1 nM,95.1%
same,cell viability,[4]; 10 nM,74%
same,cell viability,[4]; 100 nM,63.2%
same,cell viability,[4]; 1000 nM,21.5%
same,cell viability,[4]; 10000 nM,13%
Sc1ncnc2nc[nH]c12 [6-mercaptopurine],cell viability,[1]; 1 nM,95.6%
same,cell viability,[1]; 10 nM,> 100%
same,cell viability,[1]; 100 nM,94%
same,cell viability,[1]; 1000 nM,99.9%
same,cell viability,[1]; 10000 nM,> 100%
same,cell viability,[2]; 1 nM,> 100%
same,cell viability,[2]; 10 nM,98.2%
same,cell viability,[2]; 100 nM,97.6%
same,cell viability,[2]; 1000 nM,97.9%
same,cell viability,[2]; 10000 nM,98.1%
same,cell viability,[3]; 1 nM,62.5%
same,cell viability,[3]; 10 nM,68.1%
same,cell viability,[3]; 100 nM,48.8%
same,cell viability,[3]; 1000 nM,79.9%
same,cell viability,[3]; 10000 nM,30.1%
same,cell viability,[4]; 1 nM,> 100%
same,cell viability,[4]; 10 nM,95.1%
same,cell viability,[4]; 100 nM,92.6%
same,cell viability,[4]; 1000 nM,84.3%
same,cell viability,[4]; 10000 nM,93.1%
C[C@]12O[C@H](C[C@]1(O)CO)n1c3ccccc3c3c4c(c5c6ccccc6n2c5c31)CNC4=O [Lestaurtinib],cell viability,[1]; 1 nM,97.1%
same,cell viability,[1]; 10 nM,79%
same,cell viability,[1]; 100 nM,74.7%
same,cell viability,[1]; 1000 nM,51.1%
same,cell viability,[1]; 10000 nM,11.5%
same,cell viability,[2]; 1 nM,96.4%
same,cell viability,[2]; 10 nM,74.7%
same,cell viability,[2]; 100 nM,41.8%
same,cell viability,[2]; 1000 nM,56.9%
same,cell viability,[2]; 10000 nM,1.92%
same,cell viability,[3]; 1 nM,56.2%
same,cell viability,[3]; 10 nM,18.6%
same,cell viability,[3]; 100 nM,19.5%
same,cell viability,[3]; 1000 nM,5.6%
same,cell viability,[3]; 10000 nM,< 0%
same,cell viability,[4]; 1 nM,93.5%
same,cell viability,[4]; 10 nM,54.2%
same,cell viability,[4]; 100 nM,22.3%
same,cell viability,[4]; 1000 nM,22.1%
same,cell viability,[4]; 10000 nM,< 0%
C[C@H]1O[C@@H](O[C@H]2[C@@H](O)C[C@H](O[C@H]3[C@@H](O)C[C@H](O[C@H]4CC[C@@]5(C)[C@H](CC[C@@H]6[C@@H]5C[C@@H](O)[C@]5(C)[C@@H](C7=CC(=O)OC7)CC[C@]65O)C4)O[C@@H]3C)O[C@@H]2C)C[C@H](O)[C@@H]1O [Digoxin],cell viability,[1]; 1 nM,99.2%
same,cell viability,[1]; 10 nM,96.8%
same,cell viability,[1]; 100 nM,82.8%
same,cell viability,[1]; 1000 nM,26.6%
same,cell viability,[1]; 10000 nM,3.27%
same,cell viability,[2]; 1 nM,> 100%
same,cell viability,[2]; 10 nM,97.6%
same,cell viability,[2]; 100 nM,48.8%
same,cell viability,[2]; 1000 nM,12.4%
same,cell viability,[2]; 10000 nM,7.54%
same,cell viability,[3]; 1 nM,76%
same,cell viability,[3]; 10 nM,65.2%
same,cell viability,[3]; 100 nM,17.7%
same,cell viability,[3]; 1000 nM,2.92%
same,cell viability,[3]; 10000 nM,2.42%
same,cell viability,[4]; 1 nM,96.2%
same,cell viability,[4]; 10 nM,84.5%
same,cell viability,[4]; 100 nM,85.3%
same,cell viability,[4]; 1000 nM,13.2%
same,cell viability,[4]; 10000 nM,8.18%
